Data set [1] concerns Rattus norvegicus. Briefly: Protection against MCAO-induced Sprague-Dawley rat assessed as reduction in infarct volume in brain at 20 mg/kg, iv measured for 24 hrs relative to control. Type of data set: functional. Details: scale not given: the % may be the effect or the level left.
For data set [2], the system named is Platelet. Briefly: Inhibition of AA-induced platelet aggregation in New Zealand White rabbit. The following applies: Oryctolagus cuniculus. The data set is classed as functional, cell-based.
Data set [3] concerns Platelet. Description: Inhibition of ADP-induced platelet aggregation in New Zealand White rabbit. The data set is classed as functional, cell-based. The conditions noted are these: Oryctolagus cuniculus.
Data set [4] in a line: Plasma concentration in human. The data set is classed as ADME.
A short description of data set [5]: Cmax in Sprague-Dawley rat at 12.5 mg/kg, iv measured for 24 hrs by LC-MS/MS analysis. The conditions noted are these: in vivo. Type of data set: ADME, organism-based.
Data set [6] can be described thus: AUC (0 to infinity) in Sprague-Dawley rat at 12.5 mg/kg, iv incubated for 24 hrs by LC-MS/MS analysis. The data set is classed as ADME, organism-based. The following applies: in vivo.
The nature of data set [7]: AUC (0 to t) in Sprague-Dawley rat at 12.5 mg/kg, iv incubated for 24 hrs by LC-MS/MS analysis. The data set is classed as ADME, organism-based. The following applies: in vivo.
For data set [8], the system named is Rattus norvegicus. Briefly: Protection against MCAO-induced rat assessed as reduction in infarct volume in brain at 40 mg/kg, iv measured after 24 hrs relative to control. The data set is classed as functional. Details: scale not given: the % may be the effect or the level left.
Data set [9] can be described thus: Ratio of drug concentration in rat brain to plasma measured after 1 hrs by LC-MS/MS analysis. Type of data set: ADME. The conditions noted are these: read-out: BPR.
Data set [10] is described as follows: Ratio of drug concentration in rat brain to plasma measured after 0.5 hrs by LC-MS/MS analysis. Type of data set: ADME. The following applies: read-out: BPR.
Data set [11] is described as follows: Half life in rat at 15 mg/kg, iv measured after 24 hrs by LC-MS/MS analysis. Type of data set: ADME, organism-based. The conditions noted are these: in vivo.
Data set [12] in a line: Ratio of drug concentration in rat brain to plasma measured after 6 hrs by LC-MS/MS analysis. The following applies: read-out: BPR. Type of data set: ADME.
The test system of data set [13] is Platelet. Description: Inhibition of ADP-induced platelet aggregation in New Zealand White rabbit at 1 uM relative to control. The data set is classed as functional. The following applies: Oryctolagus cuniculus.
In a further data set the test system is Mus musculus. Description: Neuroprotective activity against hypoxia-ischemia brain injured mouse model assessed as reduction in infarct volume at 20 mg/kg, iv measured after 72 hrs by immuno-histochemistry based staining analysis relative to control. Type of data set: functional. Details: scale not given: the % may be the effect or the level left.
A short description of data set [14]: Lipophilicity, logP of compound. Type of data set: physicochemical. The following applies: octanol/water.
For the next data set, the system named is SH-SY5Y. Description: Neuroprotective activity against MPP+-induced human SH-SY5Y cells assessed as reduction in cell death at 20 uM measured after 48 hrs by MTT assay. Type of data set: functional. Also noted: scale not given: the % may be the effect or the level left. In general terms: Tetrazolium assays rely on reduction of a dye to a coloured formazan, in cell work by metabolically active cells.

Data set [15] is described as follows: Solubility of compound in PBS at pH 7.4. The data set is classed as physicochemical.

Experimental findings from ChEMBL document CHEMBL5584223, “Research progress of prodrugs for the treatment of cerebral ischemia” (Eur J Med Chem, 2024) are described below.

Values after ≈ are worked out from the molar mass of the structure shown.

As usually defined, the IC50 is the concentration that inhibits the measured activity by half. In the case of `CCCC[C@H]1OC(=O)c2ccccc21`, the Activity in the data set on Rattus norvegicus [1] is listed as 78.21%. Further, the IC50 in the data set with Platelet [2] worked out at 420 nM; in the data set on Platelet [3], 700 nM. In [4], `O=C(Nc1cc(C(F)(F)F)cc(C(F)(F)F)c1)c1cc(Cl)ccc1OP(=O)(O)O` registered a Cp of over 500 ng/mL.

Take `CCCC[C@H](OC(C)=O)c1ccccc1C(=O)O`: the Activity in the data set with Rattus norvegicus [1] is on record as 66.12%. By Cmax is commonly meant the maximum level reached in the sampled fluid or tissue. `O=P([O-])([O-])Oc1ccc(-c2cc(=S)ss2)cc1.[Na+].[Na+]`: the concentration in data set [5] peaked (Cmax) at 3330 ng/mL. Also, the AUC in data set [6] came to 4579 h/ng/mL. The molecule also returned an AUCt in data set [7] of 3927.4 h/ng/mL. Turning to `CCCC[C@H](OC(=O)CN1CCC(O[N+](=O)[O-])CC1)c1ccccc1C(=O)OCCCCCCOc1ccc(-c2cc(=S)ss2)cc1`, the 50% inhibitory concentration (IC50) in the data set on Platelet [2] was determined as 110 nM; in the data set on Platelet [3], 100 nM. Turning to `CCCC[C@H](OC(C)=O)c1ccccc1C(=O)O.N=C(N)NCCC[C@H](N)C(=O)O`, the Activity in the data set on Rattus norvegicus [8] was 78.21%. For orientation: half-life means the time needed for the level to fall by half in the phase considered. Consider `CCCCC(OC(=O)CN(C)C)c1ccccc1C(=O)Oc1ccc(/C=C/C(=O)OC[C@@H]2OC(O)[C@@H](O)[C@H](O)[C@H]2O)cc1OC` (stereo partly specified), for which the Kp at 1 h in data set [9] is 1.27. Moreover, the Kp at 0.5 h in data set [10] was determined as 1.99. Besides, the half-life in data set [11] was found to be 44 min. For the same molecule, the Kp at 6 h in data set [12] worked out at 4.8. Usually inhibition stands for the percentage by which the read-out fell short of the control. With `CCCCC(OC(=O)CN(CC)CC)c1ccccc1C(=O)Oc1ccc(/C=C/C(=O)OCCCCO[N+](=O)[O-])cc1OC` (stereo unspecified), the Activity with Rattus norvegicus [8] is recorded as 18.3%. In the data set on Platelet [13], this molecule yielded an inhibition at 1 µM of 88.5%. Consider `CC(=N)NCc1cccc(/C=[N+](\[O-])C(C)(C)C)c1`, for which, in the data set on Mus musculus, the Activity came to 30%. Regarding `Cc1cc(O)n(-c2ccc(F)cc2)n1`, the Activity in the data set with Rattus norvegicus [1] came out at 32.46%. As usually defined, the logP is a log measure of how a compound divides between an organic and an aqueous phase. The solubility is the concentration that dissolves in the medium under given conditions. `COC(=O)[C@H]1O[C@@H](Oc2cc3oc(-c4ccc(OCCCCOC(=O)C5=CCc6cc(OC)ccc6N5C)cc4)cc(=O)c3c(O)c2O)[C@H](O)[C@H](O)[C@H]1O` (single isomer, unassigned): the lipophilicity (logP) in data set [14] was 1.76. Moreover, the Activity in the data set with SH-SY5Y is recorded as 65%. The molecule further displayed a solubility in data set [15] of 183 µg/mL (≈ 245 µM). `CC(=O)Oc1ccccc1C(=O)O` [ASPIRIN] came in with an inhibition at 1 µM with Platelet [13] of 73.7%. The same measure, in the same setting: for `CCCCC1OC(=O)c2ccccc21` (stereo not drawn) [RAC-3-N-BUTYLPHTHALIDE] the value was 51.4%.

`O=C(O)[C@H]1O[C@@H](Oc2cc3oc(-c4ccc(O)cc4)cc(=O)c3c(O)c2O)[C@H](O)[C@@H](O)[C@@H]1O` [SCUTELLARIN] had a logP in [14] of 0.015. For the molecule `Clc1ccccc1CN1CCc2sccc2C1` [TICLOPIDINE], the IC50 in the data set on Platelet [3] is 360 nM.
